Earlier results, collected in patent publication US20230416797A1, “MODULATING ANTIMICROBIAL PEPTIDE HALF-LIFE” (Syngulon SA., priority 2020, published 2023).

B1: Ent35-MccV: fusion bacteriocin: N-terminal glycine, Enterocin CRL35, a linker comprising three glycines, and a C-terminal Microcin V (protein)
chain: GKYYGNGVSCNKKGCSVDWGRAIGIIGNNSAANLATGGAAGWKSGGGASGRDIAMAIGTLSGQFVAGGIGAAAGGVAGGAIYDYASTHKPNPAMSPSGLGGTIKQKPEGIPSEAWNYAAGRLCNWSPNNLSDVCL
modifications: Hybrid bacteriocin Ent35-MccV
notes: fusion bacteriocin: N-terminal glycine, Enterocin CRL35, a linker comprising three glycines, and a C-terminal Microcin V

Columns and labels:
Candida species = details: against Candida species; Shekh and Roy (2012)
[1] = system: fungal microbial organism; details: from B. subtilis; Zuber et al. (1993), Shenin et al. (1995)
[2] = system: pathogenic Gram-positive and Gram-negative bacteria; details: against pathogenic Gram-positive and Gram-negative bacteria; Acuña et al. (2012)

Molecule | antifungal activities [1] | other results
WLPPAGLLGRCGRWFRPWLLWLQ SGAQY KWLGNLFGLGPK (WLPPAGLLGRCGRWFRPWLLWLQSGAQYKWLGNLFGLGPK; listed as Enterococcus faecalis) [SEQ ID NO: 1, an Enterococcus faecalis peptide] | – | neutralizing activity (Candida species): neutralizing activity
aurin B1 | antifungal activities | –
botrycidin AJ1316 | antifungal activities | –
B1 | – | antimicrobial activity [2]: antimicrobial activity
